Laboratory results as given in patent publication US5055459A, “Selective elimination of malignant cells from bone marrow by bis (acyloxy) propylphosphoramidates” (Board of Regents, The University of Texas, priority 1989, dated 1991).
Converted amounts (≈) assume the structure as drawn. “Also recorded” adds a separate entry of the source.

What was measured:
[1] = system: L1210 lymphatic leukemia cells; assay: cells; assay type: cell-based, murine; conditions: Mus musculus, L1210, 72 h, read-out: ED50
[2] = background; cited from earlier work
[3] = system: KBM-3; assay: Clonogenic assay, drug in agar, prolonged exposure (Table 8, FIG. 11); assay type: cell-based; conditions: Homo sapiens, drug added to agar plates
[4] = system: KBM-3/DOX; assay: cells; assay type: cell-based, human; conditions: Homo sapiens
[5] = system: KBM-3/AMSA; assay: cells; assay type: cell-based, human; conditions: Homo sapiens
[6] = system: HL-60; assay: Clonogenic assay, drug in agar, prolonged exposure (Table 8, FIG. 11); assay type: cell-based; conditions: Homo sapiens, drug added to agar plates
[7] = system: HL-60/AMSA; assay: cells; assay type: cell-based; conditions: Homo sapiens
[8] = Long-term suspension culture: GM-CFC regrowth on autologous irradiated adherent cell layers (Table 9); assay type: cell-based, human; conditions: human, bone marrow gm-cfc; concentration used in long-term suspension cultures; read-out: detectable GM-CFC abolished
Method: (§1) A modification of previously reported techniques was used (Gartner and Kaplan, 1980; Greenberg et al., 1981; Potter et al., 1981; Coulombel et al., 1983). Briefly, 1×10^7 mononuclear bone marrow cells were suspended in 10 ml IMDM supplemented with 12.5% horse serum, 12.5% FCS and 5×10^-6 M hydrocortisone succinate (HyC) (Abbott Laboratories, N. Chicago, Ill.) in 25 cm^2 tissue culture flasks (Corning Glass Works, Corning N.Y.). After 8 to 10 days an adherent fibroblast (feeder) layer, supplying a hemopoietic microenvironment, was established. The non-adherent cells were washed off, and the feeder layer was irradiated with 3.0 Gy gamma-irradiation at a dose rate of 3.3 Gy per min. A second bone marrow sample was obtained from the same donor, and low-density mononuclear cells were isolated as above. The cells were exposed for 60 min at 37° C. to increasing drug concentrations. After two washings, the cells were suspended in 10 ml IMDM with 10% FCS and 5×10^-6 M HyC, and then added to the previously established feeder layers. All cultures were established in duplicate, and all flasks were incubated for five weeks at 37° C. in an atmosphere of 5% CO2 and 12% O2 balanced with N2 to 100%. Twice weekly, 85% of the medium was replaced with fresh medium. Immediately after drug exposure, and at weekly intervals up to 5 weeks, one ml of the cell suspension was removed and monitored for the presence of GM-CFC using the soft agar assay as described above. The total number of surviving GM-CFC formed from untreated cells served as a quality control of the culture system and as a reference (positive controls) for calculating the surviving GM-CFC fraction in cultures of drug-treated cells Flasks containing irradiated stromal cell layers alone were subjected to the same twice-weekly media changes and were monitored weekly for possible regrowth of GM-CFC (negative controls). After five weeks, all non-adherent cells were removed from the flasks. The feeder layers were carefully rinsed twice with 10 ml of PBS, then treated with 0.2% trypsin in EDTA solution (GIBCO Laboratories, Grand Island, N.Y.) for 2-3 min at 37° C. After washing, the resulting single cell suspensions were assayed for GM-CFC.
(§2) ^a Average values ± S.D. for three experiments. In each experiment
(§3) the cultures were conducted in duplicates.
(§4) ^b At the end of the culture period. For details see Materials and […]

[9] = system: GM-CFC from normal human bone marrow; assay: as above; assay type: cell-based; conditions: for GM-CFC × 10^-3 per adherent cell layer: end of culture period; for GM-CFC × 10^-3 per adherent cell layer / GM-CFC × 10^-3 per culture: average ± S.D.
Method: as §1, §2, §3, §4

[10] = system: KBM-3 leukemic CFC and GM-CFC in bone marrow; assay: cells; assay type: cell-based, human
[11] = Stability of frozen stock solution; assay type: physicochemical; conditions: frozen at -80° C., stock solution 265 uM
Method: In the initial experiments, acetaldoifosphamide (1-C) was weighed and dissolved in Dulbecco's phosphate-buffered saline (pH 7.4) (GIBCO, Grand Island, N.Y.) supplemented with Ca++ (10 mg %) and glucose (100 mg %) (enriched PBS) immediately prior to each experiment. […] In subsequent experiments a frozen stock solution was used; aliquots were thawed as necessary immediately prior to use.

[12] = system: mononuclear cells from normal bone marrow (GM-CFC)
[13] = system: human myeloid cell line KBM-3
[14] = system: GM-CFC from normal human bone marrow
[15] = system: mononuclear cells from normal bone marrow (GM-CFC); assay: cells; conditions: Homo sapiens, 1 h
[16] = system: human myeloid cell line KBM-3; assay: cells
[17] = in vitro; conditions: human, bone marrow gm-cfc
[18] = Stability in phosphate-buffered saline

In the case of `O=P1(N(CCCl)CCCl)NCCCO1` (stereo not drawn) [Cyclophosphamide, cyclophosphamide, reference compound], the IC50 [1] is given as 20 µg/mL (≈ 76.6 µM) and the “therapeutic index, in words” value [2] is given as “higher therapeutic index than must other mustard-type alkylating agents”.
`CC(=O)OC(CCOP(=O)(NCCCl)NCCCl)OC(C)=O` [acetaldoifosphamide] gave an IC50 [3] of 200 nM, an IC50 [4] of 160 nM and an IC50 [5] of 680 nM. For the same molecule, the IC50 [6] was 300 nM, the IC50 [7] was 560 nM and the cytotoxicity at 1 h [8] was > 99%. For the same molecule, the “GM-CFC × 10^-3 per adherent cell layer” value ([9]; 26.4 uM) was 0.22 ± 0.09 GM-CFC × 10^-3 per adherent ce, the “GM-CFC × 10^-3 per culture” value ([9]; 26.4 uM, week 0) was 2.8 ± 1.5 GM-CFC × 10^-3 per culture and the “GM-CFC × 10^-3 per culture” value ([9]; 26.4 uM, week 1) was 15.0 ± 1.8 GM-CFC × 10^-3 per culture. The “GM-CFC × 10^-3 per culture” value ([9]; 26.4 uM, week 2) was 18.2 ± 4.6 GM-CFC × 10^-3 per culture, the “GM-CFC × 10^-3 per culture” value ([9]; 26.4 uM, week 3) was 2.9 ± 1.1 GM-CFC × 10^-3 per culture and the “GM-CFC × 10^-3 per culture” value ([9]; 26.4 uM, week 4) was 0.8 ± 0.4 GM-CFC × 10^-3 per culture. The “GM-CFC × 10^-3 per culture” value ([9]; 26.4 uM, week 5) was 0.09 ± 0.03 GM-CFC × 10^-3 per culture, the “GM-CFC content of adherent cell layer vs controls” value ([9]; 33 uM, end of five weeks) was “contained more GM-CFC than the controls” and the “GM-CFC × 10^-3 per adherent cell layer” value ([9]; 33.0 uM) was 0.12 ± 0.04 GM-CFC × 10^-3 per adherent ce. For the same molecule, the “GM-CFC × 10^-3 per culture” value ([9]; 33.0 uM, week 0) was 0.1 ± 0.04 GM-CFC × 10^-3 per culture, the “GM-CFC × 10^-3 per culture” value ([9]; 33.0 uM, week 1) was 7.7 ± 1.3 GM-CFC × 10^-3 per culture and the “GM-CFC × 10^-3 per culture” value ([9]; 33.0 uM, week 2) was 18.6 ± 2.5 GM-CFC × 10^-3 per culture. For the same molecule, the “GM-CFC × 10^-3 per culture” value ([9]; 33.0 uM, week 3) was 2.6 ± 0.3 GM-CFC × 10^-3 per culture, the “GM-CFC × 10^-3 per culture” value ([9]; 33.0 uM, week 4) was 1.1 ± 0.3 GM-CFC × 10^-3 per culture and the “GM-CFC × 10^-3 per culture” value ([9]; 33.0 uM, week 5) was 0.13 ± 0.06 GM-CFC × 10^-3 per culture. The “GM-CFC content of adherent cell layer vs controls” value ([9]; 39.6 uM, end of five weeks) was “had the same GM-CFC content as the controls”, the “GM-CFC × 10^-3 per adherent cell layer” value ([9]; 39.6 uM) was 0.06 ± 0.03 GM-CFC × 10^-3 per adherent ce and the “GM-CFC × 10^-3 per culture” value ([9]; 39.6 uM, week 0) was 0.3 ± 0.2 GM-CFC × 10^-3 per culture. The “GM-CFC × 10^-3 per culture” value ([9]; 39.6 uM, week 1) was 16.8 ± 7.6 GM-CFC × 10^-3 per culture, the “GM-CFC × 10^-3 per culture” value ([9]; 39.6 uM, week 2) was 18.5 ± 6.5 GM-CFC × 10^-3 per culture and the “GM-CFC × 10^-3 per culture” value ([9]; 39.6 uM, week 3) was 3.9 ± 1.3 GM-CFC × 10^-3 per culture. For the same molecule, the “GM-CFC × 10^-3 per culture” value ([9]; 39.6 uM, week 4) was 0.8 ± 0.3 GM-CFC × 10^-3 per culture, the “GM-CFC × 10^-3 per culture” value ([9]; 39.6 uM, week 5) was 0.10 ± 0.02 GM-CFC × 10^-3 per culture and the “number of GM-CFC in non-adherent and adherent population” value ([9]; 53 uM, end of five weeks) was “subnormal number of GM-CFC”. For the same molecule, the “GM-CFC × 10^-3 per adherent cell layer” value ([9]; 53.0 uM) was 0.03 ± 0.01 GM-CFC × 10^-3 per adherent ce, the “GM-CFC × 10^-3 per culture” value ([9]; 53.0 uM, week 0) was 0 GM-CFC × 10^-3 per culture and the “GM-CFC × 10^-3 per culture” value ([9]; 53.0 uM, week 1) was 0.2 ± 0.0 GM-CFC × 10^-3 per culture. The “GM-CFC × 10^-3 per culture” value ([9]; 53.0 uM, week 2) was 1.2 ± 0.2 GM-CFC × 10^-3 per culture, the “GM-CFC × 10^-3 per culture” value ([9]; 53.0 uM, week 3) was 0.3 ± 0.1 GM-CFC × 10^-3 per culture and the “GM-CFC × 10^-3 per culture” value ([9]; 53.0 uM, week 4) was 0.06 ± 0.02 GM-CFC × 10^-3 per culture. For the same molecule, the “GM-CFC × 10^-3 per culture” value ([9]; 53.0 uM, week 5) was 0.006 ± 0.002 GM-CFC × 10^-3 per culture, the IC99 ([9]; Homo sapiens, 1 h, GM-CFC) was 33 µM and the IC100 ([9]; Homo sapiens, 1 h, GM-CFC) was 53 µM. The “time to recovery of GM-CFC to control level” value ([9]; after bone marrow exposure) was ≤ 2 weeks, the “GM-CFC recovery to control levels” value ([9]; normal bone marrow, concentration abolishing more than 99% of GM-CFC) was “two to three weeks” and the “regrowth / elimination of leukemic cells” value [10] was “leukemic cell proliferation was not evident; also recorded: no regrowth of leukemic CFC was observed; also recorded: the leukemia was completely eliminated with full recovery of GM-CFC production”. The log reduction at 39.6 µM ([10]; Homo sapiens, 1 h, read-out: reduction of leukemic cells) was > 5, the “retention of full cytotoxic activity on storage” value [11] was “retained full cytotoxic activity for more than four months” and the “effect of erythrocytes on activity” value [12] was “decreases the activity”. The “cytotoxicity relative to 4-HC on a molar basis” value ([12]; human) was 8-10 times, the “activity against normal marrow GM-CFC versus leukemic myeloid CFC (KBM-3)” value [13] was “more active against normal marrow GM-CFC than against leukemic myeloid CFC” and the “dependence of cytotoxicity on cell concentration” value [13] was “a 20-fold increase in cell concentration results in only a two-fold decrease in cytotoxicity”. The “increase in clonogenic KBM-3 cell survival” value [13] was 2 fold, the GM-CFC doubling time [14] was 6 to 12 h and the “GM-CFC recovery kinetics / progenitor sparing, in words” value [14] was “has a sparing effect on very immature hemopoietic stem cells”. The “delay in proliferation of the GM-CFC pool” value [14] was 24 h, the “detectable GM-CFC after highest concentration” value [14] was “initially had no detectable GM-CFC, however after day two rapid GM-CFC proliferation was apparent” and the IC50 [15] was 11.5 to 12.5 µM. The IC90 [16] was ~1300 nM, the cytotoxicity at 1 h [17] was 95 to 100% and the half-life ([18]; pbs, pH 7.4) was > 3.33 days. For the same molecule, the “stability in saline solution” value ([18]; saline solution) was “stable in saline solution”.
